Results: patent US10538498B2, “1,3,4-oxadiazole sulfonamide derivative compounds as histone deacetylase 6 inhibitor, and the pharmaceutical composition comprising the same” (Chong Kun Dang Pharmaceutical Corp., priority 2015, dated 2020)

Experiments:
[1] = target: T1, human recombinant HDAC1 (Homo sapiens, UniProt Q13547); assay: HDAC1 enzyme activity inhibition assay (HDAC Fluorimetric Drug Discovery Kit); assay type: biochemical; conditions: 0.3 μg enzyme, 10 μM substrate, 30° C., 60 minutes
T1 construct: purchased Enzo Life Science BML-SE456
T1 sequence (Q13547 whole entry): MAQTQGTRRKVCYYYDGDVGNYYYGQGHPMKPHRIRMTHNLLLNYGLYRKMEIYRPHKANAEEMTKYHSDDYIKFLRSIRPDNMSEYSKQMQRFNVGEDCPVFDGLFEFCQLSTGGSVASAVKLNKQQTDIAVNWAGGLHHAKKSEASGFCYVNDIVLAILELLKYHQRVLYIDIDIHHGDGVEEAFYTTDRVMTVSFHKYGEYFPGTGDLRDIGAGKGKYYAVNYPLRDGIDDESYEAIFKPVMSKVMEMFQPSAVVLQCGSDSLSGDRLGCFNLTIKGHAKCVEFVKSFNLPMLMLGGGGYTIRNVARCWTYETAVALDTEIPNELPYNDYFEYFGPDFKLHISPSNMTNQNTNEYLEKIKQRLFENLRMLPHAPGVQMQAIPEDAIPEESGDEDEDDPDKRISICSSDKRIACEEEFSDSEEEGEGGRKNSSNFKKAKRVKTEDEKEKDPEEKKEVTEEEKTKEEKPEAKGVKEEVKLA
Outline: (§1)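 Fluorescence (Ex 360, Em 460) after 30 min developer step; IC50 from dose-response. Reaction: 0.3 μg recombinant enzyme, 10 μM Fluor de Lys-SIRT1 substrate, 5-fold compound dilutions, 60 min at 30° C. Same protocol for both isoforms.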

[2] = target: T2, human recombinant HDAC6 (Homo sapiens, UniProt Q9UBN7); assay: HDAC6 enzyme activity inhibition assay (HDAC Fluorimetric Drug Discovery Kit); assay type: biochemical; conditions: for HDAC6 selectivity (fold): HDAC1 vs HDAC6; for IC50: same protocol as the HDAC1 enzyme activity test
T2 construct: purchased Calbiochem 382180
T2 sequence (Q9UBN7 1-1215): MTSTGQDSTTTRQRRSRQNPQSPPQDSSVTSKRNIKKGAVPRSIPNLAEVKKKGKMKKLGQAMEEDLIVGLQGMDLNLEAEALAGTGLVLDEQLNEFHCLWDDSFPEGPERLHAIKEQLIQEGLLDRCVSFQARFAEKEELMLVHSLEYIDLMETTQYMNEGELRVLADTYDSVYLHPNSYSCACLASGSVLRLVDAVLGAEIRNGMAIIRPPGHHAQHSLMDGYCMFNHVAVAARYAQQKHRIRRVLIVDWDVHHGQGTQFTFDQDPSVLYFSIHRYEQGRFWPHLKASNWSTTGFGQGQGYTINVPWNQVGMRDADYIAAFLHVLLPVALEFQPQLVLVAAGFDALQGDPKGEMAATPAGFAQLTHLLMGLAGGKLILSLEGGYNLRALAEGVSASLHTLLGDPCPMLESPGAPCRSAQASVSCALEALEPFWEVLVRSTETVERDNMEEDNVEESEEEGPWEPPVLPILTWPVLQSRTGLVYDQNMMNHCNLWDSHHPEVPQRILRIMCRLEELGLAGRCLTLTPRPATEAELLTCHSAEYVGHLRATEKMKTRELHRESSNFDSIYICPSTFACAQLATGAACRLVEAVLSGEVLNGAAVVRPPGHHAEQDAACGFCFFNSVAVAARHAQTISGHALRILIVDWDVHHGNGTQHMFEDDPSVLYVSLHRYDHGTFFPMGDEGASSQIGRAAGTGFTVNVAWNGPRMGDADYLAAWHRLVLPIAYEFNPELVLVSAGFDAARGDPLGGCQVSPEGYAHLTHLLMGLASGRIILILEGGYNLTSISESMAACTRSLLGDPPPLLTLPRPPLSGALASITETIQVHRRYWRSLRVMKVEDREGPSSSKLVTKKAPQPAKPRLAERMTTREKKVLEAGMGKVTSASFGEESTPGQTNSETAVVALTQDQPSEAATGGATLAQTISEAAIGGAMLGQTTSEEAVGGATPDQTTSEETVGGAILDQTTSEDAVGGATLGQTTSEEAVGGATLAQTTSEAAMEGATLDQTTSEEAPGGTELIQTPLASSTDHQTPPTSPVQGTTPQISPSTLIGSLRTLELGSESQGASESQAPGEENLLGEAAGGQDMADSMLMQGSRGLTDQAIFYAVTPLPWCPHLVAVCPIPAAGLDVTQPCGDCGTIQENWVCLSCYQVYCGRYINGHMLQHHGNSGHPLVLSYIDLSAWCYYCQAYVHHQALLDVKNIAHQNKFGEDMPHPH
Outline: as §1

IC50 [1] [µM] | HDAC6 selectivity (fold) [2] [fold] | IC50 [2] [µM] | Structure (SMILES)
43.3 | 2407 | 0.018 | CCS(=O)(=O)N(Cc1ccc(-c2nnc(C(F)F)o2)cc1F)c1ccc2cnn(C)c2c1 [Compound 11521, N-(4-(5-(difluoromethyl)-1,3,4-oxadiazol-2-yl)-2-fluorobenzyl)-N-(1-methyl-1H-indazol-6-yl)ethanesulfonamide]
46.5 | 312 | 0.149 | CS(=O)(=O)N(Cc1ncc(-c2nnc(C(F)(F)F)o2)cn1)c1ccccc1 [Compound 11565, N-phenyl-N-((5-(5-(trifluoromethyl)-1,3,4-oxadiazol-2-yl)pyrimidin-2-yl)methyl)methanesulfonamide]
30.9 | 7 | 4.33 | CS(=O)(=O)N(Cc1ccc(-c2nnc(C(F)(F)F)o2)nn1)c1ccccc1 [Compound 11567, N-phenyl-N-((6-(5-(trifluoromethyl)-1,3,4-oxadiazol-2-yl)pyridazin-3-yl)methyl)methanesulfonamide]
2.54 | 1 | 2.29 | CS(=O)(=O)N(Cc1cnc(-c2nnc(C(F)(F)F)o2)cn1)c1ccccc1 [Compound 11573, N-phenyl-N-((5-(5-(trifluoromethyl)-1,3,4-oxadiazol-2-yl)pyrazin-2-yl)methyl)methanesulfonamide]
67 | 3349 | 0.02 | CN1CCC(S(=O)(=O)N(Cc2ccc(-c3nnc(C(F)F)o3)cc2)c2ccccc2)CC1 [Compound 11637, N-(4-(5-(difluoromethyl)-1,3,4-oxadiazol-2-yl)benzyl)-1-methyl-N-phenylpiperidine-4-sulfonamide]
40.9 | 1778 | 0.023 | CC(C)N1CCC(S(=O)(=O)N(Cc2ccc(-c3nnc(C(F)F)o3)cc2)c2ccccc2)CC1 [Compound 11638, N-(4-(5-(difluoromethyl)-1,3,4-oxadiazol-2-yl)benzyl)-1-isopropyl-N-phenylpiperidine-4-sulfonamide]
77.7 | 1849 | 0.042 | O=S(=O)(C1CCN(C2CCC2)CC1)N(Cc1ccc(-c2nnc(C(F)F)o2)cc1)c1ccccc1 [Compound 11639, 1-cyclobutyl-N-(4-(5-(difluoromethyl)-1,3,4-oxadiazol-2-yl)benzyl)-N-phenylpiperidine-4-sulfonamide]
77.9 | 1277 | 0.061 | O=S(=O)(CCN1CCCC1)N(Cc1ccc(-c2nnc(C(F)F)o2)cc1)c1ccccc1 [Compound 11645, N-(4-(5-(difluoromethyl)-1,3,4-oxadiazol-2-yl)benzyl)-N-phenyl-2-(pyrrolidin-1-yl)ethane-1-sulfonamide]
109 | 7254 | 0.015 | C[C@@H]1CN(CCS(=O)(=O)N(Cc2ccc(-c3nnc(C(F)F)o3)cc2)c2ccccc2)C[C@H](C)N1C [Compound 11646, N-(4-(5-(difluoromethyl)-1,3,4-oxadiazol-2-yl)benzyl)-N-phenyl-2-((3S,5R)-3,4,5-trimethylpiperazin-1-yl)ethane-1-sulfonamide]
79.8 | 3626 | 0.022 | O=S(=O)(CCCN1CCCC1)N(Cc1ccc(-c2nnc(C(F)F)o2)cc1)c1ccccc1 [Compound 11647, N-(4-(5-(difluoromethyl)-1,3,4-oxadiazol-2-yl)benzyl)-N-phenyl-3-(pyrrolidin-1-yl)propane-1-sulfonamide]
498 | 8300 | 0.06 | CS(=O)(=O)N1CCN(CCCS(=O)(=O)N(Cc2ccc(-c3nnc(C(F)F)o3)cc2)c2ccccc2)CC1 [Compound 11648, N-(4-(5-(difluoromethyl)-1,3,4-oxadiazol-2-yl)benzyl)-3-(4-(methylsulfonyl)piperazin-1-yl)-N-phenylpropane-1-sulfonamide]
54.6 | 975 | 0.056 | O=C(c1cncn1CCS(=O)(=O)N(Cc1ccc(-c2nnc(C(F)F)o2)cc1)c1ccccc1)C(F)F [Compound 11678, 2-(5-(2,2-difluoroacetyl)-1H-imidazol-1-yl)-N-(4-(5-(difluoromethyl)-1,3,4-oxadiazol-2-yl)benzyl)-N-phenylethane-1-sulfonamide]
61.3 | 2666 | 0.023 | O=S(=O)(CCN1CCN(CCCO)CC1)N(Cc1ccc(-c2nnc(C(F)F)o2)cc1)c1ccccc1 [Compound 11679, N-(4-(5-(difluoromethyl)-1,3,4-oxadiazol-2-yl)benzyl)-2-(4-(3-hydroxypropyl)piperazin-1-yl)-N-phenylethane-1-sulfonamide]
76.4 | 2634 | 0.029 | O=S(=O)(C1CCN(C2COC2)CC1)N(Cc1ccc(-c2nnc(C(F)F)o2)cc1)c1ccccc1 [Compound 11680, N-(4-(5-(difluoromethyl)-1,3,4-oxadiazol-2-yl)benzyl)-1-(oxetan-3-yl)-N-phenylpiperidine-4-sulfonamide]
60.3 | 654 | 0.0921 | Cc1cccc(N(Cc2ccc(-c3nnc(C(F)F)o3)cn2)S(=O)(=O)C2CCN(C3CC4CCC3C4)CC2)c1 (stereo not drawn) [Compound 11686, 1-(bicyclo[2.2.1]heptan-2-yl)-N-((5-(5-(difluoromethyl)-1,3,4-oxadiazol-2-yl)pyridin-2-yl)methyl)-N-(m-tolyl)piperidine-4-sulfonamide]
79.1 | 741 | 0.107 | Cc1cccc(N(Cc2ccc(-c3nnc(C(F)F)o3)cn2)S(=O)(=O)C2CCN(C3CCC(F)(F)CC3)CC2)c1 [Compound 11687, 1-(4,4-difluorocyclohexyl)-N-((5-(5-(difluoromethyl)-1,3,4-oxadiazol-2-yl)pyridin-2-yl)methyl)-N-(m-tolyl)piperidine-4-sulfonamide]
20.2 | 423 | 0.0477 | Cc1cccc(N(Cc2ccc(-c3nnc(C(F)F)o3)cn2)S(=O)(=O)C2CCN([C@H]3CC[C@H](F)CC3)CC2)c1 [Compound 11688, N-((5-(5-(difluoromethyl)-1,3,4-oxadiazol-2-yl)pyridin-2-yl)methyl)-1-((1r,4r)-4-fluorocyclohexyl)-N-(m-tolyl)piperidine-4-sulfonamide]
20 | 429 | 0.0466 | Cc1cccc(N(Cc2ccc(-c3nnc(C(F)F)o3)cn2)S(=O)(=O)C2CCN([C@H]3CC[C@@H](F)CC3)CC2)c1 [Compound 11689, N-((5-(5-(difluoromethyl)-1,3,4-oxadiazol-2-yl)pyridin-2-yl)methyl)-1-((1s,4s)-4-fluorocyclohexyl)-N-(m-tolyl)piperidine-4-sulfonamide]
54.8 | 244 | 0.225 | Cc1cccc(N(Cc2ccc(-c3nnc(C(F)F)o3)cn2)S(=O)(=O)C2CCN([C@H]3CC[C@H](C(F)(F)F)CC3)CC2)c1 [Compound 11690, N-((5-(5-(difluoromethyl)-1,3,4-oxadiazol-2-yl)pyridin-2-yl)methyl)-N-(m-tolyl)-1-((1r,4r)-4-(trifluoromethyl)cyclohexyl)piperidine-4-sulfonamide]
